# Test results from patent US10407445B2, “Hepatitis C virus inhibitors” (ENANTA PHARMACEUTICALS, INC., priority 2013, dated 2019).
# Columns and labels:
# Assay type in all cases: cell-based
# Details in all cases: Hepatitis C virus
# [1] = system: HCV genotype 1a replicon, NS5A H58D; test: Transient replication assay, GT1a NS5A H58D
# [2] = system: HCV genotype 1a replicon, NS5A M28T; test: Transient replication assay, GT1a NS5A M28T
# [3] = system: GT2a-JFH replicon; test: Stable replicon assay, comparison to daclatasvir, GT2a-JFH
# From the text: The plasmid pSG-hRlucNeo-JFH1 was generated from pSG-Neo-JFH1 (Kato et al. 2003, Gastroentrology 125:1808-1817). A fragment containing the JFH-1 5′ NTR-hRluc-Neo gene and two unique restriction sites (AgeI and PmeI) was synthesized (Integrated DNA Technologies, Coralville, Iowa). The resulting plasmid was digested with AgeI and PmeI and the excised fragment (5′NTR-hRluc-Neo) was ligated into pSG-Neo-JFH1 digested with the same enzymes to generate pSG-hRlucNeo-JFH1. To allow expression of heterologous NS5A sequences, an NS5A shuttle vector was generated from pSG-Neo-JFH1, in which the entire coding sequence of NS5A plus the first eight codons of NS5B were replaced with an AfeI restriction site. This was done by Infusion cloning (Clontech, Mountain View, Calif.) from two PCR products that were generated using pSG-Neo-JFH1 as a template and the following primer pairs: […]
# (§1) Stable HCV replicon cell lines were grown in complete media (Dulbecco's modified Eagle medium [DMEM], 2 mM L-glutamine, 0.1 mM essential amino acids, 1 mM sodium pyruvate, 10% fetal bovine serum) with the addition 500 μg/ml […] (G418). […] For stable and transient replicon assays, luciferase activity of compound-treated cells was measured relative to DMSO-treated cells after 72 h incubation using RENILLA-GLO™ Luciferase Assay (Promega). […]
# [4] = system: GT3a-S52 replicon; test: Stable replicon assay, comparison to daclatasvir, GT3a-S52
# From the text: The GT3a-S52 replicon plasmid pSGRlucneo-GT3a-S52-HDVR-(ISH) was synthesized by Genscript. This plasmid encodes a GT3a (strain S52, accession GU814264) bicistronic subgenomic replicon encoding the hRluc-Neo reporter gene in the first cistron and NS3-NS5B, driven by an encephalomyocarditis virus (EMCV) internal ribosome entry site (IRES), in the second cistron. The hepatitis delta ribozyme (HDVR) was included after the HCV 3′ NTR followed by a unique SpeI restriction site for linearization. This replicon encodes three cell culture adaptive mutations, P1226S (NS3), D1437H (NS3), and S2210I (NS5A), as described previously (Saeed et al 2012 Antimicrob. Agents Chemother. 54: 1878-1887). The GT4a-ED43 replicon plasmid pSGRlucneo-GT4a-ED43-HDVR-(KG) was synthesized by Genscript. […]
# as §1
structure (smiles),measurement,setting,value
COC(=O)N[C@H](C(=O)N1C[C@]2(CCCOC2)C[C@H]1c1ncc(-c2ccc(-c3ccc4c(ccc5nc([C@@H]6C[C@@H]7CCC[C@@H]7N6C(=O)[C@@H](NC(=O)OC)C(C)C)[nH]c54)c3)cc2)[nH]1)C(C)C [Compound 16],EC50,[1],0.01 nM
same,EC50,[2],0.049 nM
same,EC50,[3],0.004 nM
same,EC50,[4],4.7 nM
"COC(=O)N[C@H](C(=O)N1CCC[C@H]1c1nc(-c2ccc(-c3ccc(-c4c[nH]c([C@@H]5CCCN5C(=O)[C@@H](NC(=O)OC)C(C)C)n4)cc3)cc2)c[nH]1)C(C)C [Daclatasvir, reference compound]",EC50,[1],1.2 nM
same,EC50,[2],3.4 nM
same,EC50,[3],0.008 nM
same,EC50,[4],1.2 nM
